Reference: the NIST ThermoML archive (doi:10.1016/j.fluid.2018.05.028)
Numbers after ± are expanded uncertainties.

Assay: refractive index (Na D-line) (dimensionless); xn = mol fraction of the nth substance listed
Settings: 101 kPa, Liquid, Standard Abbe refractometry

CCCCCCCCCCCCCCCC [hexadecane] + CCCO
refractive index
Settings	x2 = 0	x2 = 0.1	x2 = 0.2	x2 = 0.3	x2 = 0.4	x2 = 0.5	x2 = 0.6	x2 = 0.7	x2 = 0.8	x2 = 0.9
293.15 K	1.434 ± 0.0028	1.4327 ± 0.0028	1.431 ± 0.0028	1.4288 ± 0.0028	1.4266 ± 0.0028	1.4233 ± 0.0028	1.4196 ± 0.0028	1.4148 ± 0.0028	1.4084 ± 0.0028	1.3993 ± 0.0028
298.15 K	1.4318 ± 0.0028	1.4305 ± 0.0028	1.4288 ± 0.0028	1.4266 ± 0.0028	1.4244 ± 0.0028	1.4211 ± 0.0028	1.4174 ± 0.0028	1.4127 ± 0.0028	1.4062 ± 0.0028	1.3972 ± 0.0028
303.15 K	1.4296 ± 0.0028	1.4284 ± 0.0028	1.4266 ± 0.0028	1.4244 ± 0.0028	1.4222 ± 0.0028	1.4189 ± 0.0028	1.4152 ± 0.0028	1.4105 ± 0.0028	1.4041 ± 0.0028	1.3951 ± 0.0028
308.15 K	1.4275 ± 0.0028	1.4262 ± 0.0028	1.4245 ± 0.0028	1.4223 ± 0.0028	1.42 ± 0.0028	1.4167 ± 0.0028	1.4131 ± 0.0028	1.4083 ± 0.0028	1.4019 ± 0.0028	1.3929 ± 0.0028
313.15 K	1.4254 ± 0.0028	1.4241 ± 0.0028	1.4223 ± 0.0028	1.4201 ± 0.0028	1.4179 ± 0.0028	1.4145 ± 0.0028	1.4109 ± 0.0028	1.4061 ± 0.0028	1.3998 ± 0.0028	1.3908 ± 0.0028
318.15 K	1.4233 ± 0.0028	1.4219 ± 0.0028	1.4201 ± 0.0028	1.4179 ± 0.0028	1.4156 ± 0.0028	1.4123 ± 0.0028	1.4087 ± 0.0028	1.4038 ± 0.0028	1.3976 ± 0.0028	1.3885 ± 0.0028
323.15 K	1.4211 ± 0.0028	1.4197 ± 0.0028	1.4179 ± 0.0028	1.4157 ± 0.0028	1.4134 ± 0.0028	1.41 ± 0.0028	1.4064 ± 0.0028	1.4016 ± 0.0028	1.3952 ± 0.0028	1.3863 ± 0.0028
328.15 K	1.419 ± 0.0028	1.4176 ± 0.0028	1.4157 ± 0.0028	1.4135 ± 0.0028	1.4112 ± 0.0028	1.4077 ± 0.0028	1.4041 ± 0.0028	1.3993 ± 0.0028	1.393 ± 0.0028	1.3841 ± 0.0028
333.15 K	1.4169 ± 0.0028	1.4154 ± 0.0028	1.4135 ± 0.0028	1.4113 ± 0.0028	1.4089 ± 0.0028	1.4054 ± 0.0028	1.4018 ± 0.0028	1.397 ± 0.0028	1.3907 ± 0.0028	1.3818 ± 0.0028
338.15 K	1.4149 ± 0.0028	1.4133 ± 0.0028	1.4113 ± 0.0028	1.4091 ± 0.0028	1.4067 ± 0.0028	1.4032 ± 0.0028	1.3995 ± 0.0028	1.3947 ± 0.0028	1.3884 ± 0.0028	1.3795 ± 0.0028
343.15 K	1.4129 ± 0.0028	1.4111 ± 0.0028	1.4092 ± 0.0028	1.4069 ± 0.0028	1.4044 ± 0.0028	1.401 ± 0.0028	1.3972 ± 0.0028	1.3924 ± 0.0028	1.386 ± 0.0028	1.3771 ± 0.0028

CCCCCCCCCCCCCCCC [hexadecane] + CCCCO
refractive index
Settings	x2 = 0	x2 = 0.1	x2 = 0.2	x2 = 0.3	x2 = 0.4	x2 = 0.5	x2 = 0.6	x2 = 0.7	x2 = 0.8	x2 = 0.9
293.15 K	1.434 ± 0.0028	1.4329 ± 0.0028	1.4315 ± 0.0028	1.4295 ± 0.0028	1.4274 ± 0.0028	1.425 ± 0.0028	1.422 ± 0.0028	1.4184 ± 0.0028	1.4139 ± 0.0028	1.4078 ± 0.0028
298.15 K	1.4318 ± 0.0028	1.4307 ± 0.0028	1.4293 ± 0.0028	1.4274 ± 0.0028	1.4252 ± 0.0028	1.4228 ± 0.0028	1.4199 ± 0.0028	1.4162 ± 0.0028	1.4118 ± 0.0028	1.4057 ± 0.0028
303.15 K	1.4296 ± 0.0028	1.4286 ± 0.0028	1.4271 ± 0.0028	1.4252 ± 0.0028	1.4231 ± 0.0028	1.4206 ± 0.0028	1.4177 ± 0.0028	1.4141 ± 0.0028	1.4096 ± 0.0028	1.4036 ± 0.0028
308.15 K	1.4275 ± 0.0028	1.4264 ± 0.0028	1.425 ± 0.0028	1.423 ± 0.0028	1.4209 ± 0.0028	1.4185 ± 0.0028	1.4155 ± 0.0028	1.4119 ± 0.0028	1.4075 ± 0.0028	1.4015 ± 0.0028
313.15 K	1.4254 ± 0.0028	1.4242 ± 0.0028	1.4228 ± 0.0028	1.4208 ± 0.0028	1.4187 ± 0.0028	1.4163 ± 0.0028	1.4134 ± 0.0028	1.4097 ± 0.0028	1.4053 ± 0.0028	1.3994 ± 0.0028
318.15 K	1.4233 ± 0.0028	1.4221 ± 0.0028	1.4206 ± 0.0028	1.4186 ± 0.0028	1.4165 ± 0.0028	1.4141 ± 0.0028	1.4111 ± 0.0028	1.4075 ± 0.0028	1.4031 ± 0.0028	1.3973 ± 0.0028
323.15 K	1.4211 ± 0.0028	1.4199 ± 0.0028	1.4184 ± 0.0028	1.4164 ± 0.0028	1.4143 ± 0.0028	1.4119 ± 0.0028	1.4089 ± 0.0028	1.4053 ± 0.0028	1.4009 ± 0.0028	1.3951 ± 0.0028
328.15 K	1.419 ± 0.0028	1.4177 ± 0.0028	1.4162 ± 0.0028	1.4142 ± 0.0028	1.4121 ± 0.0028	1.4097 ± 0.0028	1.4067 ± 0.0028	1.4031 ± 0.0028	1.3987 ± 0.0028	1.3929 ± 0.0028
333.15 K	1.4169 ± 0.0028	1.4156 ± 0.0028	1.4141 ± 0.0028	1.4121 ± 0.0028	1.4099 ± 0.0028	1.4074 ± 0.0028	1.4045 ± 0.0028	1.4009 ± 0.0028	1.3965 ± 0.0028	1.3907 ± 0.0028
338.15 K	1.4149 ± 0.0028	1.4135 ± 0.0028	1.4119 ± 0.0028	1.4099 ± 0.0028	1.4077 ± 0.0028	1.4052 ± 0.0028	1.4022 ± 0.0028	1.3987 ± 0.0028	1.3942 ± 0.0028	1.3885 ± 0.0028
343.15 K	1.4129 ± 0.0028	1.4114 ± 0.0028	1.4097 ± 0.0028	1.4076 ± 0.0028	1.4056 ± 0.0028	1.403 ± 0.0028	1.4 ± 0.0028	1.3964 ± 0.0028	1.392 ± 0.0028	1.3862 ± 0.0028

CCCCCCCC/C=C\CCCCCCCC(=O)OCC [ethyl (Z)-9-octadeceneoate] + CCCO
refractive index
Settings	x2 = 0	x2 = 0.1	x2 = 0.2	x2 = 0.3	x2 = 0.4	x2 = 0.5	x2 = 0.6	x2 = 0.7	x2 = 0.8	x2 = 0.9
293.15 K	1.4494 ± 0.0028	1.4484 ± 0.0028	1.4468 ± 0.0028	1.4448 ± 0.0028	1.4422 ± 0.0028	1.4388 ± 0.0028	1.4346 ± 0.0028	1.4287 ± 0.0028	1.4205 ± 0.0028	1.408 ± 0.0028
298.15 K	1.4474 ± 0.0028	1.4464 ± 0.0028	1.4448 ± 0.0028	1.4427 ± 0.0028	1.4401 ± 0.0028	1.4367 ± 0.0028	1.4325 ± 0.0028	1.4267 ± 0.0028	1.4184 ± 0.0028	1.4058 ± 0.0028
303.15 K	1.4454 ± 0.0028	1.4444 ± 0.0028	1.4427 ± 0.0028	1.4406 ± 0.0028	1.4381 ± 0.0028	1.4347 ± 0.0028	1.4305 ± 0.0028	1.4246 ± 0.0028	1.4163 ± 0.0028	1.4037 ± 0.0028
308.15 K	1.4433 ± 0.0028	1.4423 ± 0.0028	1.4407 ± 0.0028	1.4386 ± 0.0028	1.436 ± 0.0028	1.4326 ± 0.0028	1.4284 ± 0.0028	1.4225 ± 0.0028	1.4142 ± 0.0028	1.4016 ± 0.0028
313.15 K	1.4414 ± 0.0028	1.4403 ± 0.0028	1.4386 ± 0.0028	1.4365 ± 0.0028	1.4339 ± 0.0028	1.4305 ± 0.0028	1.4262 ± 0.0028	1.4204 ± 0.0028	1.4121 ± 0.0028	1.3994 ± 0.0028
318.15 K	1.4395 ± 0.0028	1.4382 ± 0.0028	1.4366 ± 0.0028	1.4344 ± 0.0028	1.4318 ± 0.0028	1.4284 ± 0.0028	1.4241 ± 0.0028	1.4183 ± 0.0028	1.4099 ± 0.0028	1.3973 ± 0.0028
323.15 K	1.4375 ± 0.0028	1.4362 ± 0.0028	1.4345 ± 0.0028	1.4323 ± 0.0028	1.4297 ± 0.0028	1.4263 ± 0.0028	1.422 ± 0.0028	1.4161 ± 0.0028	1.4078 ± 0.0028	1.3952 ± 0.0028
328.15 K	1.4355 ± 0.0028	1.4341 ± 0.0028	1.4325 ± 0.0028	1.4303 ± 0.0028	1.4276 ± 0.0028	1.4242 ± 0.0028	1.4199 ± 0.0028	1.4139 ± 0.0028	1.4057 ± 0.0028	1.393 ± 0.0028
333.15 K	1.4335 ± 0.0028	1.4321 ± 0.0028	1.4304 ± 0.0028	1.4282 ± 0.0028	1.4255 ± 0.0028	1.422 ± 0.0028	1.4178 ± 0.0028	1.4118 ± 0.0028	1.4035 ± 0.0028	1.3907 ± 0.0028
338.15 K	1.4315 ± 0.0028	1.4301 ± 0.0028	1.4284 ± 0.0028	1.4261 ± 0.0028	1.4234 ± 0.0028	1.4199 ± 0.0028	1.4156 ± 0.0028	1.4096 ± 0.0028	1.4013 ± 0.0028	1.3884 ± 0.0028
343.15 K	1.4296 ± 0.0028	1.4281 ± 0.0028	1.4264 ± 0.0028	1.4241 ± 0.0028	1.4213 ± 0.0028	1.4178 ± 0.0028	1.4134 ± 0.0028	1.4074 ± 0.0028	1.3991 ± 0.0028	1.3861 ± 0.0028
